Results taken from patent US6706709B2, “Indolinone derivatives as protein kinase/phosphatase inhibitors” (Sugen, Inc., priority 2000, dated 2004).

Tests used:
GST-Flk1 = GST-Flk1 (UniProt P35918); test: GST-FLK-1 bioassay (bio flkGST); format: biochemical
Experimental: This assay analyzes the tyrosine kinase activity of GST-Flk1 on poly glu tyr peptides.
2. poly glu tyr 4:1, lyophilizate (Sigma Catalog # P0275). Prepare 1 mg/mL poly glu tyr in sterile PBS and store in 1 ml aliquots at −20° C.
3. Preparation of poly glu tyr (pEY) coated assay plates: Coat 2 μg/well of poly glu tyr (pEY) in 100 μL PBS at room temperature for 2 hours or at +4° C. overnight. Cover plates well to prevent evaporation.
4. PBS Buffer: To make 1 liter of a 1× working solution, mix […], 1.15 g NA2HPO4, 0.2 g KCl and 8 g NaCl in approx. 900 mL dH2O. When all reagents have dissolved, adjust the pH to 7.2 with HCl. Bring total volume to 1L with dH2O.
5. PBS-Tw Buffer: To 1L of PBS Buffer, add […] Tween-20. Stir until dissolved.
6. TBB-Blocking Buffer: To make one liter of a 1× working solution, mix 1.21 g TRIS, 8.77 g NaCl, 1 mL TWEEN-20 in approximately 900 mL dH2O. Adjust pH to 7.2 with HCl. Add 10 g BSA, stir to dissolve. Bring total volume to 1 L with dH2O. Filter to remove particulate matter.
7. 1% BSA in PBS: To make a 1× working solution, add 10 g BSA to approx. 990 mL PBS buffer, stir to dissolve. Adjust total volume to 1 L with PBS buffer, filter to remove particulate matter.
9. GST-Flk1cd purified from sf9 recombinant baculovirus transformation.
13. Kinase Dilution Buffer (KDB): Mix 10 mL Hepes (pH 7.5), 1 mL of 5 M NaCl, 40 μL of 100 mM NaVO4 and 0.4 mL of 5% BSA in dH2O with 88.56 mL of dH2O.
14. NUNC-96-well V bottom polypropylene plates Applied Scientific Catalog # AS-72092
15. EDTA: Mix 14.12 g ethylenediaminetetraacetic acid (EDTA) to approx. 70 mL dH2O. Add 10N NaOH until EDTA dissolves. Adjust pH to 8.0. Adjust total volume to 100 mL with dH2O.
16. 1° Antibody Dilution Buffer: Mix 10 mL of 5% BSA in PBS buffer with 89.5 mL TBSTw.
17. Anti-phosphotyrosine monoclonal conjugated to horseradish peroxidase (PY99 HRP, Santa Cruz Biotech).
18. 2,2′-Azino-bis(3-ethylbenzthiazoline-6-sulfonic acid (ABTS, Moss, Cat. No. ABST).
1. Coat Corning 96 well ELISA plates with 2 μg of polyEY peptide in sterile PBS as described in step 3 of Materials and Reagents.
2. Remove unbound liquid from wells by inverting plate. Wash once with TBSTw. Pat the plate on a paper towel to remove excess liquid.
3. Add 100 μL of 1% BSA in PBS to each well. Incubate, with shaking, for 1 hr. at room temperature.
5. Soak wells with 50 mM Hepes pH7.5 (150 μL/well).
6. Dilute test compound with dH2O/4% DMSO to 4 times the desired final assay concentration in 96-well polypropylene plates.
7. Add 25 μL diluted test compound to ELISA plate.
8. Add 25 μL of 40 mM MnCl2 with 4×ATP (2 μM) to all wells.
9. Add 25 μL 0.5 M EDTA to negative control wells.
10. Dilute GST-Flk1 0.005 μg (5 ng)/well in KDB. For 50 ml KDB add 100 μL of 0.050 mg/mL GST-Flk1 enzyme.
11. Add 50 μL of diluted enzyme to each well.
12. Incubate, with shaking, for 15 minutes at room temperature.
13. Stop reaction by adding 50 μL of 250 mM EDTA (pH 8.0).
14. Wash 3× with TBSTw and pat plate on paper towel to remove excess liquid.
15. Add 100 μL per well anti-phosphotyrosine HRP conjugate, 1:5,000 dilution in antibody dilution buffer. Incubate, with shaking for 90 min. at room temperature.
16. Wash as described above in step 14.
17. Add 100 μL of room temperature ABTS solution to each well.
18. Incubate, with shaking, for 10 to 15 minutes. Remove any bubbles.
19. Stop reaction by adding 20 μL of 10% SDS.
20. Read assay on Dynatech MR7000 ELISA reader: test filter at 410 nM; reference filter at 630 nM.

EGF Receptor = target: T1, EGF Receptor (Homo sapiens, UniProt P00533); test: bio EGF (EGF Receptor ELISA); format: biochemical
T1 construct: expressed in transfected cells; host or cells: NIH 3T3/C7 (mouse fibroblasts engineered to express human EGF-R)
T1 sequence (P00533 25-1210): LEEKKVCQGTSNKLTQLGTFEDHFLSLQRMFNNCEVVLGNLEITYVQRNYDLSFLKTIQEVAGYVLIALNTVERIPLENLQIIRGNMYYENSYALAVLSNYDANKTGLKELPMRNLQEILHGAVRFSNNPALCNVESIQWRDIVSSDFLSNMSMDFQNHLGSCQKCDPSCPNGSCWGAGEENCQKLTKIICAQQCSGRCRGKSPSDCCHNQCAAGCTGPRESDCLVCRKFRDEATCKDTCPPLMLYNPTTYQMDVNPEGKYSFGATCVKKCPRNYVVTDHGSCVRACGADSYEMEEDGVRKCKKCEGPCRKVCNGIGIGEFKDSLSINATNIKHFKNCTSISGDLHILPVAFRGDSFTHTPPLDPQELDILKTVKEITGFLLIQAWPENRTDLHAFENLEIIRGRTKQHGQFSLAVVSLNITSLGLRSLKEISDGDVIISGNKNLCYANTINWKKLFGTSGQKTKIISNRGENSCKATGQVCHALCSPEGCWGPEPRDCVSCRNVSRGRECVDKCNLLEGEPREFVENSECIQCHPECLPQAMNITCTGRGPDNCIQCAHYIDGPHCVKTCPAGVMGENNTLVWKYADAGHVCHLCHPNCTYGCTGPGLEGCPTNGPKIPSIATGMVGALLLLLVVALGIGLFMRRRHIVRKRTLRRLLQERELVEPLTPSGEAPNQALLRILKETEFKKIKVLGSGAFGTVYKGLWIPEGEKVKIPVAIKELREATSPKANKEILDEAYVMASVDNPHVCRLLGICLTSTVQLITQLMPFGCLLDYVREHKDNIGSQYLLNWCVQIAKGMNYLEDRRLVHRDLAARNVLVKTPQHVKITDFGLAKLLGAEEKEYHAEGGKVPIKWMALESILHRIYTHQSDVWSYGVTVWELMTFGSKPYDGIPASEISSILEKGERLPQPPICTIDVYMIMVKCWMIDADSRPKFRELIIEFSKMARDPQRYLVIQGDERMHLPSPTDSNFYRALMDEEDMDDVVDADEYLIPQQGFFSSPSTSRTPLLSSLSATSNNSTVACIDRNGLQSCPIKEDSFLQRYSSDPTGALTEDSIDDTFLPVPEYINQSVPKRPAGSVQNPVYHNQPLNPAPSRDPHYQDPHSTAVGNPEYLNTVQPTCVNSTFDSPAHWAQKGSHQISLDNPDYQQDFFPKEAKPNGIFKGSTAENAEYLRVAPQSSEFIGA
Experimental: EGF Receptor kinase activity in cells genetically engineered to express human EGF-R was measured as described below:
The following materials and reagents were used:
b. 05-101 (UBI) (a monoclonal antibody recognizing an EGFR extracellular domain).
c. Anti-phosphotyrosine antibody (anti-Ptyr) (polyclonal).
d. Detection antibody: Goat anti-rabbit lgG horse radish peroxidase conjugate, TAGO, Inc., Burlingame, Calif.
Keep solution in dark at 4° C. until used.
The following protocol was used:
1. […] Coated plates are good for up to 10 days when stored at 4° C.
2. On day of use, remove coating buffer and replace with blocking buffer (5% Carnation Instant Non-Fat Dry Milk in PBS). Incubate the plate, shaking, at room temperature (about 23° C. to 25° C.) for 30 minutes. Just prior to use, remove blocking buffer and wash plate 4 times with TBST buffer.
2. Choose dishes having 80-90% confluence for the experiment. Trypsinize cells and stop reaction by adding 10% CS DMEM medium. Suspend cells in DMEM medium (10% CS DMEM medium) and centrifuge once at 1000 rpm at room temperature for 5 minutes.
3. Resuspend cells in seeding medium (DMEM, 0.5% bovine serum), and count the cells using trypan blue. Viability above 90% is acceptable. Seed cells in DMEM medium (0.5% bovine serum) at a density of 10,000 cells per well, 100 μL per well, in a 96 well microtiter plate. Incubate seeded cells in 5% CO2 at 37° C. for about 40 hours.
1. Check seeded cells for contamination using an inverted microscope. Dilute drug stock (10 mg/ml in DMSO) 1:10 in DMEM medium, then transfer 5 μL to a test well for a final drug dilution of 1:200 and a final DMSO concentration of 1%. Control wells receive DMSO alone. Incubate in 5% CO2 at 37° C. for one hour.
2. Prepare EGF ligand: dilute stock EGF in DMEM so that upon transfer of 10 μL dilute EGF (1:12 dilution), 25 nM final concentration is attained.
3. Prepare fresh 10 ml HNTG* sufficient for 100 μL per well wherein HNTG* comprises: HNTG stock (2.0 mL), milli-Q H2O (7.3 mL), EDTA, 100 mM, pH 7.0 (0.5 mL), Na3VO4 0.5 M (0.1 mL) and Na4(P2O7), 0.2 M (0.1 mL).
5. After two hours incubation with drug, add prepared EGF ligand to cells, 10 μL per well, to yield a final concentration of 25 nM. Control wells receive DMEM alone. Incubate, shaking, at room temperature, for 5 minutes.
6. Remove drug, EGF, and DMEM. Wash cells twice with PBS. Transfer HNTG* to cells, 100 μL per well. Place on ice for 5 minutes. Meanwhile, remove blocking buffer from other ELISA plate and wash with TBST as described above.
7. With a pipette tip securely fitted to a micropipettor, scrape cells from plate and homogenize cell material by repeatedly aspirating and dispensing the HNTG* lysis buffer. Transfer lysate to a coated, blocked, and washed ELISA plate. Incubate shaking at room temperature for one hour.
8. Remove lysate and wash 4 times with TBST. Transfer freshly diluted anti-Ptyr antibody to ELISA plate at 100 μL per well. Incubate shaking at room temperature for 30 minutes in the presence of the anti-Ptyr antiserum (1:3000 dilution in TBST).
9. Remove the anti-Ptyr antibody and wash 4 times with TBST. Transfer the freshly diluted TAGO 30 anti-rabbit IgG antibody to the ELISA plate at 100 μL per well. Incubate shaking at room temperature for 30 minutes (anti-rabbit IgG antibody: 1:3000 dilution in TBST).
10. Remove detection antibody and wash 4 times with TBST. Transfer freshly prepared ABTS/H2O2 solution to ELISA plate, 100 μL per well. Incubate at room temperature for 20 minutes. ABTS/H2O2 solution: 1.2 μL 30% H2O2in 10 mL ABTS stock.
11. Stop reaction by adding 50 μL 5N H2SO4 (optional), and determine O.D. at 410 nm.
12. The maximal phosphotyrosine signal is determined by subtracting the value of the negative controls from the positive controls. The percent inhibition of phosphotyrosine content for extract-containing wells is then calculated, after subtraction of the negative controls.

IC50 (GST-Flk1) [µM] | IC50 (EGF Receptor) [µM] | Structure (SMILES)
0.12 | 8.02 | O=C1Nc2ccc(S(=O)(=O)Nc3cccnc3)cc2C1=Cc1cc2cc(OCCN3CCCC3)ccc2[nH]1 [IN-045, 2-oxo-3-[5-(2-pyrrolidin-1-yl-ethoxy)-1H-indol-2-ylmethylene]-2,3-dihydro-1H-indole-5-sulfonic acid pyridin-3-ylamide]
0.39 | 0.87 | O=C1Nc2ccc(S(=O)(=O)Nc3cccc(Cl)c3)cc2C1=Cc1cc2cc(OCCN3CCCC3)ccc2[nH]1 [IN-047, 2-oxo-3-[5-(2-pyrrolidin-1-yl-ethoxy)-1H-indol-2-ylmethylene]-2,3-dihydro-1H-indole-5-sulfonic acid (3-chloro-phenyl)-amide]
> 20 | > 100 | Cc1[nH]c2ccccc2c1C=C1C(=O)Nc2ccc(S(=O)(=O)N(C)C)cc21 [IN-073, 3-(2-methyl-1H-indol-3-ylmethylene)-2-oxo-2,3-dihydro-1H-indole-5-sulfonic acid dimethylamide]
> 20 | > 20 | O=C1Nc2ccc(S(=O)(=O)Nc3cccnc3)cc2C1=Cc1cc2cc(OCCN3CCOCC3)ccc2[nH]1 [IN-057, 3-[5-(2-morpholin-4-yl-ethoxy)-1H-indol-2-ylmethylene]-2-oxo-2,3-dihydro-1H-indole-5-sulfonic acid pyridin-3-ylamide]
0.003 | 43.5 | O=C1Nc2ccc(Br)cc2C1=Cc1cc2cc(OCCN3CCCC3)ccc2[nH]1 [IN-014, 5-bromo-3-[5-(2-pyrrolidin-1-yl-ethoxy)-1H-indol-2-ylmethylene]-1,3-dihydro-indol-2-one]
1.58 | > 100 | CN(C)S(=O)(=O)c1ccc2c(c1)C(=Cc1ccc3[nH]ccc3c1)C(=O)N2 [IN-074, 3-(1H-indol-5-ylmethylene)-2-oxo-2,3-dihydro-1H-indole-5-sulfonic acid dimethylamide]
0.05 | > 10 | CCN(CC)CCOc1ccc2[nH]c(C=C3C(=O)Nc4ccccc43)cc2c1 [IN-016, 3-[5-(2-diethylamino-ethoxy)-1H-indol-2-ylmethylene]-1,3-dihydro-indol-2-one]
11.5 | 22 | CNS(=O)(=O)c1ccc2c(c1)C(=Cc1cc3ccccc3[nH]1)C(=O)N2 [IN-071, 3-(1H-indol-2-ylmethylene)-2-oxo-2,3-dihydro-1H-indole-5-sulfonic acid methylamide]
0.39 | 4.46 | O=C1Nc2ccc(S(=O)(=O)Nc3ccc(Cl)cc3F)cc2C1=Cc1cc2cc(OCCN3CCOCC3)ccc2[nH]1 [IN-061, 3-[5-(2-morpholin-4-yl-ethoxy)-1H-indol-2-ylmethylene]-2-oxo-2,3-dihydro-1H-indole-5-sulfonic acid (4-chloro-2-fluoro-phenyl)-amide]
> 20 | > 100 | CN(C)S(=O)(=O)c1ccc2c(c1)C(=Cc1c[nH]c3ccccc13)C(=O)N2 [IN-072, 3-(1H-indol-3-ylmethylene)-2-oxo-2,3-dihydro-1H-indole-5-sulfonic acid dimethylamide]
0.53 | > 20 | O=C1Nc2cc(C(=O)O)ccc2C1=Cc1cc2cc(OCCN3CCOCC3)ccc2[nH]1 [IN-031, 3-[5-(2-morpholin-4-yl-ethoxy)-1H-indol-2-ylmethylene]-2-oxo-2,3-dihydro-1H-indole-6-carboxylic acid]
15.4 | > 20 | O=C1Nc2ccc(S(=O)(=O)N3CCCc4ccccc43)cc2C1=Cc1cc2cc(OCCN3CCOCC3)ccc2[nH]1 [IN-062, 5-(3,4-dihydro-2H-quinoline-1-sulfonyl)-3-[5-(2-morpholin-4-yl-ethoxy)-1H-indol-2-ylmethylene]-1,3-dihydro-indol-2-one]
0.76 | > 20 | COc1ccc(-c2ccc3c(c2)NC(=O)C3=Cc2cc3cc(OCCN4CCCC4)ccc3[nH]2)cc1 [IN-026, 6-(4-methoxy-phenyl)-3-[5-(2-pyrrolidin-1-yl-ethoxy)-1H-indol-2-ylmethylene]-1,3-dihydro-indol-2-one]
11.7 |  | NS(=O)(=O)c1ccc2c(c1)C(=Cc1c[nH]c3ccccc13)C(=O)N2 [IN-065, 3-(1H-indol-3-ylmethylene)-2-oxo-2,3-dihydro-1H-indole-5-sulfonic acid amide]
